Results published in patent US20070197957A1, “Implantable sensors, implantable pumps and anti-scarring drug combinations” (priority 2005, published 2007).

Assays:
[1] = potentiation of immunosuppressive agents
S. aureus ATCC25923 C622 = test: MIC by microtitre broth dilution; assay type: cell-based; details: Mueller Hinton broth, 37° C., 24 h, aerobic
Protocol: (§1) MIC assays were conducted essentially as described by Amsterdam, D. 1996, “Susceptibility testing of antimicrobials in liquid media”, p. 52-111, in Loman, V., ed. Antibiotics in laboratory medicine, 4th ed. Williams and Wilkins, Baltimore, Md.

[2] = tested on: P. aeruginosa PAE/K799 H187; test: MIC by microtitre broth dilution; assay type: cell-based; details: Mueller Hinton broth, 37° C., 24 h, aerobic
Protocol: as §1

S. pyogenes C721 = test: MIC by microtitre broth dilution; assay type: cell-based; details: Todd Hewitt broth, 37° C., 24 h, aerobic
Protocol: as §1

[3] = tested on: K. pneumoniae ATCC13883 C238; test: MIC by microtitre broth dilution; assay type: cell-based; details: Mueller Hinton broth, 37° C., 24 h, aerobic
Protocol: as §1

S. epidermidis C621 = test: MIC by microtitre broth dilution; assay type: cell-based; details: Mueller Hinton broth, 37° C., 24 h, aerobic
Protocol: as §1

E. coli UB1005 C498 = test: MIC by microtitre broth dilution; assay type: cell-based; details: Mueller Hinton broth, 37° C., 24 h, aerobic
Protocol: as §1

C. glabrata = test: antifungal activity against C. glabrata; assay type: cell-based
[4] = tested on: phosphatases of regenerating liver (PRL); details: cited from earlier work
endo-exonuclease = details: cited from earlier work
[5] = molecular target: protein tyrosine phosphatase 1B (PTP1B) (Homo sapiens, UniProt P18031); details: cited from earlier work
protein tyrosine phosphatase 1B (PTP1B), sequence (P18031 whole entry): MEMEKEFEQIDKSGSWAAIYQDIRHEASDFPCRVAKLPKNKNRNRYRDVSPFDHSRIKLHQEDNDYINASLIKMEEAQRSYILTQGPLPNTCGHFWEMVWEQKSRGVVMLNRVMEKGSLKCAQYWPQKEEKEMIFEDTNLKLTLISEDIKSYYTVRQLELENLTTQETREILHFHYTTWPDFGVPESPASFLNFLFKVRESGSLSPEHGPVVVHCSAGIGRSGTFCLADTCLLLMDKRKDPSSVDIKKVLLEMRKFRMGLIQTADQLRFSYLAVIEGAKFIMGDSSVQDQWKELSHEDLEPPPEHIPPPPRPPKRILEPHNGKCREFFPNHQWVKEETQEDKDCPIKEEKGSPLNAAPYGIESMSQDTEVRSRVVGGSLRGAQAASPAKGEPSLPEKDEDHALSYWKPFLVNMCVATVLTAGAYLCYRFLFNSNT

[6] = cited from earlier work; for solubility in alcohol / ethanol: alcohol or ethanol

Row | Compound | Minimum inhibitory concentration, S. aureus ATCC25923 C622 wt Gram+ (S. aureus ATCC25923 C622) | Minimum inhibitory concentration, P. aeruginosa PAE/K799 H187 Wt Gram− [2] | Minimum inhibitory concentration, S. pyogenes C721 wt Gram+ (S. pyogenes C721) | Minimum inhibitory concentration, K. pneumoniae ATCC13883 C238 wt Gram− [3] | Minimum inhibitory concentration, S. epidermidis C621 wt Gram+ (S. epidermidis C621) | Minimum inhibitory concentration, E. coli UB1005 C498 wt Gram− (E. coli UB1005 C498) | also measured
1 | CNCCCC12CCC(c3ccccc31)c1ccccc12 [maprotiline] |  |  |  |  |  |  | effect on potency of an immunosuppressive agent (e.g. cyclosporine) [1]: increases the potency
2 | Sc1ncnc2nc[nH]c12 [6-mercaptopurine] | N | N | N | N | N | N | 
3 | CCN(CC)C(C)CN1c2ccccc2Sc2ccccc21 (centres unmarked) [Ethopropazine, ethopropazine] |  |  |  |  |  |  | effect on potency of an immunosuppressive agent (e.g. cyclosporine) [1]: increases the potency
4 | CC[C@H](C)C[C@H](C)CCCCCCCCC(=O)N[C@H]1C[C@@H](O)[C@@H](NCCN)NC(=O)[C@@H]2[C@@H](O)CCN2C(=O)[C@H]([C@H](O)CCN)NC(=O)[C@H]([C@H](O)[C@@H](O)c2ccc(O)cc2)NC(=O)[C@@H]2C[C@@H](O)CN2C(=O)[C@H]([C@@H](C)O)NC1=O [caspofungin] |  |  |  |  |  |  | enhancement of antifungal activity by a manganese compound (C. glabrata): enhances
5 | CC[C@@]1(O)C(=O)OCc2c1cc1n(c2=O)Cc2cc3ccccc3nc2-1 [camptothecin] | N | N | N | N | 10^−4 Molar | N | 
6 | Sc1ncc2[nH]cnc2n1 [2-mercaptopurine] | N | N | N | N | N | N | 
7 | COc1cccc2c1C(=O)c1c(O)c3c(c(O)c1C2=O)C[C@@](O)(C(=O)CO)C[C@@H]3O[C@H]1C[C@H](N)[C@H](O)[C@H](C)O1 [doxorubicin] | 10^−5 Molar | 10^−5 Molar | 10^−7 Molar | 10^−6 Molar | 10^−6 Molar | 10^−4 Molar | 
8 | CN(C)C(=O)C(CCN1CCC(O)(c2ccc(Cl)cc2)CC1)(c1ccccc1)c1ccccc1 [Loperamide] |  |  |  |  |  |  | effect on potency of an immunosuppressive agent (e.g. cyclosporine) [1]: increase the potency
9 | NC(=O)NO [hydroxyurea] | N | 10^−4 Molar | 10^−4 Molar | N | N | N | 
10 | OC(Cn1cncn1)(Cn1cncn1)c1ccc(F)cc1F [fluconazole] |  |  |  |  |  |  | enhancement of antifungal activity by a manganese compound (C. glabrata): enhances
11 | N=C(N)c1ccc(OCCCCCOc2ccc(C(=N)N)cc2)cc1 [pentamidine] |  |  |  |  |  |  | inhibition of oncogenic phosphatases of regenerating liver (PRL) [4]: potent inhibitor; inhibition of endo-exonuclease activity (endo-exonuclease): inhibit; inhibition of PTP1B [5]: effective inhibitor
12 | CCC(C)n1ncn(-c2ccc(N3CCN(c4ccc(OC[C@H]5CO[C@](Cn6cncn6)(c6ccc(Cl)cc6Cl)O5)cc4)CC3)cc2)c1=O (mixture of isomers) [itraconazole] |  |  |  |  |  |  | enhancement of antifungal activity by a manganese compound (C. glabrata): enhances
13 | N.N.[Cl][Pt][Cl] [cisplatin] | N | 10^−4 Molar | N | N | N | N | 
14 | O=C1c2c(O)ccc(O)c2C(=O)c2c(NCCNCCO)ccc(NCCNCCO)c21 [mitoxantrone] | 10^−5 Molar | 10^−5 Molar | 10^−6 Molar | 10^−6 Molar | 10^−5 Molar | 10^−5 Molar | 
15 | CN(Cc1cnc2nc(N)nc(N)c2n1)c1ccc(C(=O)N[C@@H](CCC(=O)O)C(=O)O)cc1 [methotrexate] | 10^−5 Molar | N | 10^−6 Molar | 10^−6 Molar | N | N | 
16 | CN(C/C=C/C#CC(C)(C)C)Cc1cccc2ccccc12.Cl [terbinafine] |  |  |  |  |  |  | enhancement of antifungal activity by a manganese compound (C. glabrata): enhances
17 | Oc1cc(Cl)ccc1Oc1ccc(Cl)cc1Cl [triclosan] |  |  |  |  |  |  | effect on potency of an immunosuppressive agent (e.g. cyclosporine) [1]: increases the potency
18 | Nc1ncnc2c1ccn2[C@@H]1O[C@H](CO)[C@@H](O)[C@H]1O [tubercidin] | N | N | N | N | N | N | 
19 | O=c1[nH]cc(F)c(=O)[nH]1 [5-fluorouracil] | 10^−7 Molar | 10^−5 Molar | 10^−4 Molar | 10^−6 Molar | 10^−7 Molar | 10^−6 Molar | 
20 | COc1cc([C@@H]2c3cc4c(cc3[C@@H](O[C@@H]3O[C@@H]5CO[C@@H](C)O[C@H]5[C@H](O)[C@H]3O)[C@H]3COC(=O)[C@H]23)OCO4)cc(OC)c1O [etoposide] | 10^−5 Molar | N | 10^−5 Molar | 10^−5 Molar | 10^−6 Molar | N | 
21 | NC(=O)c1ncn([C@@H]2O[C@H](CO)[C@@H](O)[C@H]2O)n1 [Ribavirin, ribavirin] |  |  |  |  |  |  | solubility in alcohol / ethanol [6]: only slightly soluble
22 | Nc1ccn([C@@H]2O[C@H](CO)[C@@H](O)[C@@H]2O)c(=O)n1 [Cytarabine, cytarabine] | N | N | N | N | N | N | 
23 | Nc1ccc(/N=N/c2ccccc2)c(N)n1 [Phenazopyridine, phenazopyridine] |  |  |  |  |  |  | solubility in alcohol / ethanol [6]: slightly soluble in water and alcohol; solubility in water ([6]; water): slightly soluble in water and alcohol
